Experimental data reported in patent US9309222B2, “Phenyl linked quinolinyl modulators of RORγt” (Janssen Pharmaceutica NV, priority 2012, dated 2016).
Where a name gives a salt, the structure may show the parent alone.

Experiments:
[1] = tested on: IL-17 production by CD4 T cells; test: Human Th17 assay (IL-17 production by CD4 T cells under Th17 differentiation conditions); type: cell-based; conditions: Homo sapiens, CD4+ T, 72 h, IL-17 in supernatant after 3 days
Description: The human Th17 assay tests the effect of RORγt modulatory compounds on IL-17 production by CD4 T cells under conditions which favor Th17 differentiation. Total CD4^+ T cells were isolated from the peripheral blood mononuclear cells (PBMC) of healthy donors using a CD4^+ T cell isolation kit II, following the manufacturer's instructions (Miltenyi Biotec). […] 50 μL of compound at titrated concentrations in DMSO were added into each well at final DMSO concentration at 0.2%. Cells were incubated for 1 hour, then 50 μL of Th17 cell differentiation medium was added to each well. The final concentrations of antibodies and cytokines (R&D Systems) in differentiation medium were: 3×10^6/mL anti-CD3/CD28 beads (prepared using human T cell activation/expansion kit, Miltenyi Biotec), 10 μg/mL anti-IL4, 10 μg/mL anti-IFNγ, 10 ng/mL IL113, 10 ng/mL IL23, 50 ng/mL IL6, 3 ng/mL TGFβ and 20 U/mL IL2. Cells were cultured at 37° C. and 5% CO2 for 3 days. Supernatants were collected and the accumulated IL-17 in culture was measured by using MULTI-SPOT® Cytokine Plate following manufacture's instruction (Meso Scale Discovery). The plate was read using Sector Imager 6000, and IL-17 concentration was extrapolated from the standard curve. The IC50s were determined by GraphPad.

[2] = target: T1, human RORγt ligand binding domain (RORγt LBD) (Homo sapiens, UniProt P51449); test: RORγt ThermoFluor assay (thermal shift, ligand binding affinity); conditions: estimated from concentration response of thermal shift
T1 construct: His-tag (N); TurboTEV protease cleavage site (ENLYFQG) (N); made in house; host or cells: E. coli (pHIS1, modified pET vector)
T1 sequence (P51449 with tags, fused parts or gaps): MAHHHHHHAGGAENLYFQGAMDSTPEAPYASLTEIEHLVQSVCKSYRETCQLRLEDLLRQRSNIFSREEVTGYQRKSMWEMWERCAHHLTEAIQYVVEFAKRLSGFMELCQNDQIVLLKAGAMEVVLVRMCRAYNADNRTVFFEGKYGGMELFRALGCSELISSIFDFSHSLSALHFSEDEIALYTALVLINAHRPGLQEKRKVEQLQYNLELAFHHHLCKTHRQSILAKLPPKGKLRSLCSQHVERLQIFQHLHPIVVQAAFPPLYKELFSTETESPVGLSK
Summary of the method: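 Thermal shift of 0.065 mg/mL RORγt with 60 μM 1,8-ANS in 100 mM Hepes pH 7.0, 10 mM NaCl, 2.5 mM GSH, 0.002% Tween-20. Compounds in 1:2 series from 10 mM DMSO stock. Dye fluorescence (500 nm emission) tracked versus temperature; ΔTm used to derive KD.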

human RORγt LBD = target: T2, human RORγt LBD (Homo sapiens, UniProt P51449); test: RORγt reporter assay (GAL4-RORγt LBD luciferase in HEK293T cells); type: cell-based; conditions: for IC50: HEK293T cells, 24 hours compound treatment; for inhibition at 6 µM: HEK-293T, read-out: RORγt reporter Assay, % inhibition @ 6 μM, HEK293T cells, 6 μM compound
T2 construct: expressed in transfected cells
T2 sequence (P51449 258-518): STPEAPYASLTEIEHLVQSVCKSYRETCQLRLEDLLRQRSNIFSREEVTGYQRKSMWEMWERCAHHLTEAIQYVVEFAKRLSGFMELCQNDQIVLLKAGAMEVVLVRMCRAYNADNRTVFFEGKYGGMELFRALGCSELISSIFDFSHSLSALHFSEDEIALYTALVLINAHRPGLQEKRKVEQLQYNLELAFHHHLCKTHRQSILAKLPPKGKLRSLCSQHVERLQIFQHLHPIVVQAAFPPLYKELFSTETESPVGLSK
Summary of the method: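 Read-out is the firefly-to-renilla luciferase ratio versus compound concentration, after 24 h compound exposure of cells in phenol-red-free DMEM/5% lipid-reduced FCS. Cells were HEK293T bulk-transfected with a GAL4-responsive firefly reporter (pGL4.31) and GAL4 DBD–wild-type human RORγt LBD fusion (pBIND, renilla as transfection/viability control).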

| Compound | Kd [2] [nM] | IC50 (human RORγt LBD) [nM] | inhibition at 6 µM (human RORγt LBD) [%] | IC50 [1] [nM] |
| --- | --- | --- | --- | --- |
| Cc1nc(C)c(C(O)(c2ccc3nc(Cl)c(-c4ccccc4)c(Cl)c3c2)c2cncn2C)s1 (stereo not drawn) [Example 143, (2,4-Dichloro-3-phenylquinolin-6-yl)(2,4-dimethylthiazol-5-yl)(1-methyl-1H-imidazol-5-yl)methanol] |  |  |  | 20 |
| Cn1cncc1C(O)(c1ccc(Cl)cc1)c1ccc2nc(Cl)c(-c3ccccc3)c(Cl)c2c1 (racemic) [Example 119a, (4-Chlorophenyl)(2,4-dichloro-3-phenylquinolin-6-yl)(1-methyl-1H-imidazol-5-yl)methanol] |  |  |  | 1800 |
| CN(C)c1nc2ccc(C(O)(c3ccncc3)c3cncn3C)cc2c(Cl)c1-c1ccccc1 (stereo not drawn) [Example 48a, (4-Chloro-2-(dimethylamino)-3-phenylquinolin-6-yl)(1-methyl-1H-imidazol-5-yl)pyridin-4-ylmethanol•TFA] |  |  |  | 19 |
| Cn1cncc1C(O)(c1cccnc1)c1ccc2ncc(-c3ccccc3)c(Cl)c2c1 (stereo not drawn) [Example 51, (4-Chloro-3-phenylquinolin-6-yl)(1-methyl-1H-imidazol-5-yl)pyridin-3-ylmethanol•TFA] | 1800 | ~4000 | 75 |  |
| Cc1nn(C)c(C)c1C(O)(c1ccccc1)c1ccc2nc(Cl)c(-c3ccccc3)c(Cl)c2c1 (stereo not drawn) [Example 4, (2,4-Dichloro-3-phenylquinolin-6-yl)(phenyl)(1,3,5-trimethyl-1H-pyrazol-4-yl)methanol] | 3300 | 3200 | 97 |  |
| CC(C)(C)OC(=O)N1CCCC(C(O)(c2cccnc2)c2ccc3nc(Cl)c(-c4ccccc4)c(Cl)c3c2)C1 (stereo not drawn) [Example 5, tert-Butyl 3-((2,4-Dichloro-3-phenylquinolin-6-yl)(hydroxy)(pyridin-3-yl)methyl)piperidine-1-carboxylate] | 21000 | 380 | 79 |  |
| CN1CCN(c2nc3ccc(C(O)(c4ccncc4)c4cncn4C)cc3c(Cl)c2-c2ccccc2)CC1 (stereo not drawn) [Example 19, [4-Chloro-2-(4-methylpiperazin-1-yl)-3-phenylquinolin-6-yl](1-methyl-1H-imidazol-5-yl)pyridin-4-ylmethanol•TFA] | 9100 | > 6000 | 13 |  |
| CCN(CC)c1nc2ccc(C(O)(c3cccnc3)c3cccc(Cl)c3)cc2c(C)c1-c1ccccc1 (stereo not drawn) [Example 103, (3-Chlorophenyl)[2-(diethylamino)-4-methyl-3-phenylquinolin-6-yl]pyridin-3-ylmethanol•TFA] | 1400 | 2200 | 85 |  |
| COCCCn1cncc1C(O)(c1ccc(Cl)cc1)c1ccc2nc(Cl)c(-c3ccccc3)c(Cl)c2c1 (stereo not drawn) [Example 147, (4-Chlorophenyl)(2,4-dichloro-3-phenylquinolin-6-yl)(1-(3-methoxypropyl)-1H-imidazol-5-yl)methanol] | 1100 | 1300 | 97 |  |
| Cc1nn(C)c(C)c1C(O)(c1ccccc1)c1ccc2nc(Cl)c(-c3ccccc3Cl)c(Cl)c2c1 (stereo not drawn) [Example 7, (2,4-Dichloro-3-(2-chlorophenyl)quinolin-6-yl)(phenyl)(1,3,5-trimethyl-1H-pyrazol-4-yl)methanol] | 5300 | 1200 | 83 |  |
| Cn1ccnc1C(O)(c1ccnnc1)c1ccc2nc(Cl)c(-c3ccccc3)c(Cl)c2c1 (stereo not drawn) [Example 121, (2,4-Dichloro-3-phenylquinolin-6-yl)(1-methyl-1H-imidazol-2-yl)(pyridazin-4-yl)methanol] | 1700 | ~2000 | 72 |  |
| Cc1noc(C)c1C(O)(c1ccc(Cl)cc1)c1ccc2nc(Cl)c(-c3ccccc3)c(Cl)c2c1 (stereo not drawn) [Example 133, (4-Chlorophenyl)(2,4-dichloro-3-phenylquinolin-6-yl)(3,5-dimethylisoxazol-4-yl)methanol•TFA] | 1500 | > 6000 | 41 |  |
| CN(C)c1c(-c2ccccc2)c(Cl)nc2ccc(C(O)(c3ccc(F)cc3)c3cccnc3)cc12 (stereo not drawn) [Example 39, [2-Chloro-4-(dimethylamino)-3-phenylquinolin-6-yl](4-fluorophenyl)pyridin-3-ylmethanol•TFA] | 2500 | 1600 | 86 |  |
| Cc1cc(C(O)(c2ccc(F)cc2)c2cncn2C)cc2c(C#N)c(-c3cccc(F)c3)c(C#N)nc12 (single isomer, unassigned) [Example 175b, 3-(3-Fluorophenyl)-6-((4-fluorophenyl)(hydroxy)(1-methyl-1H-imidazol-5-yl)methyl)-8-methylquinoline-2,4-dicarbonitrile] | 8200 | 2100 | 76 |  |
| OC(c1ccncc1)(c1ccc2nc(Cl)c(-c3ccccc3)c(Cl)c2c1)c1ccccn1 (stereo not drawn) [Example 27, (2,4-Dichloro-3-phenylquinolin-6-yl)(pyridin-2-yl)pyridin-4-ylmethanol•TFA] | 8300 | 4200 | 75 |  |

More lines, in order of falling Kd [2], values ahead:

| Kd [2] [nM] | IC50 (human RORγt LBD) [nM] | inhibition at 6 µM (human RORγt LBD) [%] | Compound | IC50 [1] [nM] |
| --- | --- | --- | --- | --- |
| 500 | ~4000 | 87 | CN(C)CCN(C)c1nc2ccc(C(O)(c3ccncc3)c3cncn3C)cc2c(Cl)c1-c1ccccc1 (stereo not drawn) [Example 64, (4-Chloro-2-{[2-(dimethylamino)ethyl](methyl)amino}-3-phenylquinolin-6-yl)(1-methyl-1H-imidazol-5-yl)pyridin-4-ylmethanol•TFA] |  |
| 420 | ~2000 | 88 | COC1CCN(c2nc3ccc(C(O)(c4ccncc4)c4cncn4C)cc3c(Cl)c2-c2ccccc2)CC1 (stereo not drawn) [Example 75, [4-Chloro-2-(4-methoxypiperidin-1-yl)-3-phenylquinolin-6-yl](1-methyl-1H-imidazol-5-yl)pyridin-4-ylmethanol•TFA] |  |
| 330 | 1100 | 90 | CN(C)c1nc2ccc(C(O)(c3ccncc3)c3cncn3C)cc2c(O)c1-c1ccccc1 (stereo not drawn) [Example 108, 2-(Dimethylamino)-6-[hydroxy(1-methyl-1H-imidazol-5-yl)pyridin-4-ylmethyl]-3-phenylquinolin-4-ol•TFA] |  |
| 220 | 200 | 97 | CC(C)(C)OC(=O)N1CCC(C(O)(c2cccnc2)c2ccc3nc(Cl)c(-c4ccccc4)c(Cl)c3c2)CC1 (stereo not drawn) [Example 91, tert-Butyl 4-[(2,4-dichloro-3-phenylquinolin-6-yl)(hydroxy)pyridin-3-ylmethyl]piperidine-1-carboxylate] |  |
| 200 | 910 | 92 | Cn1cncc1C(O)(c1ccncc1)c1ccc2nc(Cl)c(-c3ccccc3)c(Cl)c2c1F (stereo not drawn) [Example 162, (2,4-Dichloro-5-fluoro-3-phenylquinolin-6-yl)(1-methyl-1H-imidazol-5-yl)(pyridin-4-yl)methanol•TFA] |  |
| 130 | 640 | 92 | CC(C)Oc1c(-c2ccccc2)c(Cl)nc2ccc(C(O)(c3ccncc3)c3cncn3C)cc12 (stereo not drawn) [Example 85, [2-Chloro-4-(1-methylethoxy)-3-phenylquinolin-6-yl](1-methyl-1H-imidazol-5-yl)pyridin-4-ylmethanol•TFA] |  |
| 4.6 | 140 | 96 | Cn1cncc1C(O)(c1ccc(C(F)(F)F)nc1)c1ccc2nc(C(F)(F)F)c(-c3ccccc3)c(Cl)c2c1 (stereo not drawn) [Example 172, (4-Chloro-3-phenyl-2-(trifluoromethyl)quinolin-6-yl)(1-methyl-1H-imidazol-5-yl)(6-(trifluoromethyl)pyridin-3-yl)methanol•TFA] |  |
